Activity calls are given as the source filed them. The calls are words filed in the database; no cut-off is given here.
How the values were obtained:
[1] = Antiproliferative activity against human MCF-7TN-R cells assessed as decrease in Ki-67 staining after 48 hrs by immunofluorescence staining; format: functional; design: scale not given: the % may be the effect or the level left
MDA-MB-231 = experiment: Antiproliferative activity against human MDA-MB-231 cells assessed as decrease in Ki-67 staining after 48 hrs by immunofluorescence staining; format: functional; design: scale not given: the % may be the effect or the level left
MDA-MB-468 = experiment: Antiproliferative activity against human MDA-MB-468 cells assessed as decrease in Ki-67 staining after 48 hrs by immunofluorescence staining; format: functional; design: scale not given: the % may be the effect or the level left
Homo sapiens [2] = organism: Homo sapiens; experiment: Potentiation of etoposide-induced antiproliferative activity against human MCF-7TN-R cells after 24 hrs by MTT assay; format: functional, cell-based
Homo sapiens [3] = organism: Homo sapiens; experiment: Potentiation of doxorubicin-induced antiproliferative activity against human MCF-7TN-R cells after 24 hrs by MTT assay; format: functional, cell-based
Homo sapiens [4] = organism: Homo sapiens; experiment: Induction of apoptosis in human MCF-7TN-R cells assessed as decrease in viable cells after 48 hrs by DAPI staining method relative to control; format: functional, cell-based

What does the source list for `CCCCCCCCCCCCCCNC(=O)[C@H](CO)/N=C/c1ccccc1`?
Activity [1]: 19.28%; Activity (MDA-MB-231): 74.6%; Activity (MDA-MB-468): 25.19%; Activity (Homo sapiens [2]): Active; Activity (Homo sapiens [3]): Active; Activity (Homo sapiens [4]): Active

Which Activity [1] does the source give for `CCCCCCCCCCCCC/C=C/[C@@H](O)[C@H](CO)NC(=O)CCCCCCC` here?
Its Activity is 17.19%.

What about the Activity (MDA-MB-231) of the same compound?
The Activity was 46.6%.

What about the Activity (MDA-MB-468) of the same compound?
Its Activity is 29.08%.

What about the Activity (Homo sapiens [2]) of the same compound?
Its Activity is “Active”.

What about the Activity (Homo sapiens [3]) of the same compound?
Its Activity is “Active”.

What about the Activity (Homo sapiens [4]) of the same compound?
Its Activity is “Active”.

From ChEMBL document CHEMBL2010775, “Anti-proliferative effects of the novel ceramide analog (S)-2-(benzylideneamino)-3-hydroxy-N-tetrade-cylpropanamide in chemoresistant cancer” (2012)
